{"source": "patent US20150148551A1", "about": "“GENISTEIN FOR REDUCING LEVELS OF STORAGE COMPOUNDS IN THE TREATMENT AND/OR PREVENTION OF LYSOSOMAL STORAGE DISEASES (LSDS)” (3G THERAPEUTICS, INC., priority 2012, published 2015)", "key": {"[1]": {"tested_on": "CTNS", "assay": "DNA microarray, CTNS expression in fibroblasts exposed to genistein", "assay_type": "cell-based, human", "conditions": "100 μM", "procedure": "(§1) The experiments were conducted to characterise the transcriptomic profile of human fibroblast cells exposed to genistein, and in particular to determine the expression of genes encoding lysosomal enzymes involved in metabolism (i.e. synthesis and degradation) of organic substances. The absence or deficiency of these enzymes' activity is responsible for occurrence of various lysosomal storage diseases (LSD) (including MPS). The tested hypothesis assumed that genistein influences the expression of many genes, among which there are genes coding for enzymes required in metabolism of compounds, which are pathologically stored in LSD. The results provide important information regarding genistein action on the molecular level within the range of gene expression modulation by this substance. The experiment was conducted in biological quintuplicates. Human dermal fibroblasts (HDFa) were exposed in vitro for 1, 24 or 48 hours to: 30, 60 or 100 μM of genistein; 0.05% DMSO (K1); or were untreated (control cells) (K2), and total RNA was isolated and analysed.\n(§2) Fibroblast cells were grown in Dulbecco (DMEM) medium supplemented with 10% fetal bovine serum (FBS) with the addition of 1% antibiotics and anti-fungal agents at 37° C. in humidified atmosphere of 5% CO2, until the required confluency was obtained.\n(§3) To determine the effect of tested compound on the transcriptom of the fibroblast cells, the growth medium was replaced with fresh medium, either non-supplemented (0.05% DMSO), or containing genistein (30, 60 or 100 μM, in 0.05% DMSO). The exposure was done for 1, 24 or 48 hours.\n(§4) Total RNA was isolated from fibroblasts using High Pure RNA Isolation Kit according to the protocol and then it was quantitatively evaluated using Quant-It™ RiboGreen® Assay Kit.\n(§5) Biotinylated cRNA was prepared using Ambion Total PrepAmp Kit for Illumina arrays.\n(§6) Standard hybridization and quantitative image analysis procedures—Illumina hybridization protocol and Illumina scanning protocol, were used.\n(§7) Processing of the results was done during data definition, including: background correction (using background subtraction method), normalization (using quantile normalization algorithm with Illumina GenomeStudio software package: gene expression module version 1.9.0) and summarization (using method, which sums the values of signal intensities from a set of probes)."}, "[2]": {"tested_on": "MPS II and III", "conditions": "animal tests and pilot clinical trials; cited from earlier work"}, "[3]": {"tested_on": "CLN5", "assay": "DNA microarray, CLN5 expression in fibroblasts exposed to genistein", "assay_type": "cell-based, human", "conditions": "for CLN5 fold change Average: 48 h vs DMSO", "procedure": "as §1, §2, §3, §4, §5, §6, §7"}, "[4]": {"tested_on": "CHST14", "assay": "DNA microarray, CHST14 expression in fibroblasts exposed to genistein", "assay_type": "cell-based, human", "procedure": "as §1, §2, §3, §4, §5, §6, §7"}, "[5]": {"tested_on": "GNS", "assay": "DNA microarray, GNS expression in fibroblasts exposed to genistein", "assay_type": "cell-based, human", "conditions": "for GNS fold change Average: 48 h vs DMSO", "procedure": "as §1, §2, §3, §4, §5, §6, §7"}, "[6]": {"tested_on": "ARSG", "assay": "DNA microarray, ARSG expression in fibroblasts exposed to genistein", "assay_type": "cell-based, human", "conditions": "for ARSG fold change Average: 48 h vs DMSO", "procedure": "as §1, §2, §3, §4, §5, §6, §7"}, "[7]": {"tested_on": "HS3ST3A1", "assay": "DNA microarray, HS3ST3A1 expression in fibroblasts exposed to genistein", "assay_type": "cell-based, human", "procedure": "as §1, §2, §3, §4, §5, §6, §7"}, "[8]": {"tested_on": "EXT1", "assay": "DNA microarray, EXT1 expression in fibroblasts exposed to genistein", "assay_type": "cell-based, human", "procedure": "as §1, §2, §3, §4, §5, §6, §7"}}}
{"smiles": "O=c1c(-c2ccc(O)cc2)coc2cc(O)cc(O)c12", "note": "[genistein, 4′,5,7-trihydroxy-3-phenylchromen-4-one]", "values": [{"measurement": "CTNS fold change Average 1h100/1hK1", "setting": "[1]; 1 h vs 0.05% DMSO", "value": 0.7964, "unit": "fold change"}, {"measurement": "CTNS fold change Average", "setting": "[1]; 48 h vs DMSO", "value": 1.64, "unit": "fold change"}, {"measurement": "effectiveness in the treatment of MPS II and III", "setting": "[2]", "value": "promising effectiveness"}, {"measurement": "CLN5 fold change Average 1h30/1hK1", "setting": "[3]; 30 μM, 1 h vs 0.05% DMSO", "value": 1.0505, "unit": "fold change"}, {"measurement": "CLN5 fold change Average", "setting": "[3]; 30 μM", "value": 1.3471, "unit": "fold change"}, {"measurement": "CLN5 fold change Average 1h60/1hK1", "setting": "[3]; 60 μM, 1 h vs 0.05% DMSO", "value": 1.028, "unit": "fold change"}, {"measurement": "CLN5 fold change Average", "setting": "[3]; 60 μM", "value": 1.79, "unit": "fold change"}, {"measurement": "CLN5 fold change Average 1h100/1hK1", "setting": "[3]; 100 μM, 1 h vs 0.05% DMSO", "value": 1.05, "unit": "fold change"}, {"measurement": "CLN5 fold change Average", "setting": "[3]; 100 μM", "value": 2.125, "unit": "fold change"}, {"measurement": "CHST14 fold change Average 1h30/1hK1", "setting": "[4]; 30 μM, 1 h vs 0.05% DMSO", "value": 1.007, "unit": "fold change"}, {"measurement": "CHST14 fold change Average 24h30/24hK1", "setting": "[4]; 30 μM, 24 h vs 0.05% DMSO", "value": 0.8234, "unit": "fold change"}, {"measurement": "CHST14 fold change Average 48h30/48hK1", "setting": "[4]; 30 μM, 48 h vs 0.05% DMSO", "value": 0.9217, "unit": "fold change"}, {"measurement": "CHST14 fold change Average 1h60/1hK1", "setting": "[4]; 60 μM, 1 h vs 0.05% DMSO", "value": 0.851, "unit": "fold change"}, {"measurement": "CHST14 fold change Average 24h60/24hK1", "setting": "[4]; 60 μM, 24 h vs 0.05% DMSO", "value": 0.8184, "unit": "fold change"}, {"measurement": "CHST14 fold change Average 48h61/48hK1", "setting": "[4]; 60 μM, 48 h vs 0.05% DMSO", "value": 0.8526, "unit": "fold change"}, {"measurement": "CHST14 fold change Average 1h100/1hK1", "setting": "[4]; 100 μM, 1 h vs 0.05% DMSO", "value": 1.06, "unit": "fold change"}, {"measurement": "CHST14 fold change Average 24h100/24hK1", "setting": "[4]; 100 μM, 24 h vs 0.05% DMSO", "value": 0.8438, "unit": "fold change"}, {"measurement": "CHST14 fold change Average 48h100/48hK1", "setting": "[4]; 100 μM, 48 h vs 0.05% DMSO", "value": 0.6534, "unit": "fold change"}, {"measurement": "GNS fold change Average 1h30/1hK1", "setting": "[5]; 30 μM, 1 h vs 0.05% DMSO", "value": 1.0062, "unit": "fold change"}, {"measurement": "GNS fold change Average", "setting": "[5]; 30 μM", "value": 1.2473, "unit": "fold change"}, {"measurement": "GNS fold change Average 1h60/1hK1", "setting": "[5]; 60 μM, 1 h vs 0.05% DMSO", "value": 1.022, "unit": "fold change"}, {"measurement": "GNS fold change Average", "setting": "[5]; 60 μM", "value": 1.495, "unit": "fold change"}, {"measurement": "GNS fold change Average 1h100/1hK1", "setting": "[5]; 100 μM, 1 h vs 0.05% DMSO", "value": 1.0219, "unit": "fold change"}, {"measurement": "GNS fold change Average", "setting": "[5]; 100 μM", "value": 1.418, "unit": "fold change"}, {"measurement": "ARSG fold change Average 1h30/1hK1", "setting": "[6]; 30 μM, 1 h vs 0.05% DMSO", "value": 1.083, "unit": "fold change"}, {"measurement": "ARSG fold change Average", "setting": "[6]; 30 μM", "value": 1.3921, "unit": "fold change"}, {"measurement": "ARSG fold change Average 1h60/1hK1", "setting": "[6]; 60 μM, 1 h vs 0.05% DMSO", "value": 1.204, "unit": "fold change"}, {"measurement": "ARSG fold change Average", "setting": "[6]; 60 μM", "value": 2.488, "unit": "fold change"}, {"measurement": "ARSG fold change Average 1h100/1hK1", "setting": "[6]; 100 μM, 1 h vs 0.05% DMSO", "value": 0.961, "unit": "fold change"}, {"measurement": "ARSG fold change Average", "setting": "[6]; 100 μM", "value": 1.81, "unit": "fold change"}, {"measurement": "HS3ST3A1 fold change Average 1h30/1hK1", "setting": "[7]; 30 μM, 1 h vs 0.05% DMSO", "value": 1.027, "unit": "fold change"}, {"measurement": "HS3ST3A1 fold change Average 24h30/24hK1", "setting": "[7]; 30 μM, 24 h vs 0.05% DMSO", "value": 0.835, "unit": "fold change"}, {"measurement": "HS3ST3A1 fold change Average 48h30/48hK1", "setting": "[7]; 30 μM, 48 h vs 0.05% DMSO", "value": 0.7933, "unit": "fold change"}, {"measurement": "HS3ST3A1 fold change Average 1h60/1hK1", "setting": "[7]; 60 μM, 1 h vs 0.05% DMSO", "value": 0.9002, "unit": "fold change"}, {"measurement": "HS3ST3A1 fold change Average 24h60/24hK1", "setting": "[7]; 60 μM, 24 h vs 0.05% DMSO", "value": 0.5744, "unit": "fold change"}, {"measurement": "HS3ST3A1 fold change Average 48h61/48hK1", "setting": "[7]; 60 μM, 48 h vs 0.05% DMSO", "value": 0.6043, "unit": "fold change"}, {"measurement": "HS3ST3A1 fold change Average 1h100/1hK1", "setting": "[7]; 100 μM, 1 h vs 0.05% DMSO", "value": 1.047, "unit": "fold change"}, {"measurement": "HS3ST3A1 fold change Average 24h100/24hK1", "setting": "[7]; 100 μM, 24 h vs 0.05% DMSO", "value": 0.5452, "unit": "fold change"}, {"measurement": "HS3ST3A1 fold change Average 48h100/48hK1", "setting": "[7]; 100 μM, 48 h vs 0.05% DMSO", "value": 0.569, "unit": "fold change"}, {"measurement": "EXT1 fold change Average 1h30/1hK1", "setting": "[8]; 30 μM, 1 h vs 0.05% DMSO", "value": 0.9138, "unit": "fold change"}, {"measurement": "EXT1 fold change Average 24h30/24hK1", "setting": "[8]; 30 μM, 24 h vs 0.05% DMSO", "value": 0.8048, "unit": "fold change"}, {"measurement": "EXT1 fold change Average 48h30/48hK1", "setting": "[8]; 30 μM, 48 h vs 0.05% DMSO", "value": 0.9291, "unit": "fold change"}, {"measurement": "EXT1 fold change Average 1h60/1hK1", "setting": "[8]; 60 μM, 1 h vs 0.05% DMSO", "value": 0.9881, "unit": "fold change"}, {"measurement": "EXT1 fold change Average 24h60/24hK1", "setting": "[8]; 60 μM, 24 h vs 0.05% DMSO", "value": 0.7005, "unit": "fold change"}, {"measurement": "EXT1 fold change Average 48h61/48hK1", "setting": "[8]; 60 μM, 48 h vs 0.05% DMSO", "value": 0.7648, "unit": "fold change"}, {"measurement": "EXT1 fold change Average 1h100/1hK1", "setting": "[8]; 100 μM, 1 h vs 0.05% DMSO", "value": 0.8358, "unit": "fold change"}, {"measurement": "EXT1 fold change Average 24h100/24hK1", "setting": "[8]; 100 μM, 24 h vs 0.05% DMSO", "value": 0.6022, "unit": "fold change"}, {"measurement": "EXT1 fold change Average 48h100/48hK1", "setting": "[8]; 100 μM, 48 h vs 0.05% DMSO", "value": 0.689, "unit": "fold change"}]}
